pIC50: −log10 of the molar value. Entries after “also recorded” stand apart in the source; their conditions may differ. Where two headings read alike, the source gives them in different places.
Tests used:
[1] = test system: human CEM leukemic lymphocytes; experiment: Growth inhibition of human CEM leukemic lymphocyte suspension cultures, 48 h continuous drug exposure (ID50); format: cell-based; conditions: for growth inhibitory activity: CEM in vitro; for pIC50: Homo sapiens, Lymphocyte, CEM, 48 hr continuous drug exposure (Table 2), read-out: ID50 (the source's name)
Protocol: (§1) Culture and bioassay conditions were as described in Cancer Chemotherapy Pharmacology 20:277 (1987) "Comparative Effects of Adriamycin and DNA-nonbinding Analogues on DNA, RNA, and Protein Synthesis in Vitro", Israel et al., except that cell counts were determined by hemocytometer rather than by automated cell counting.

[2] = test system: murine L1210 leukemia cells; experiment: Clonogenic assay with cultured murine L1210 leukemia cells, 1 h drug exposure (LD90); format: cell-based; conditions: for clonogenic cell kill: L1210, 1 hour exposure; for IC90: Mus musculus, L1210, 1 hr drug exposure, read-out: L1210 LD90 (dose killing 90% of clonogens)
Protocol: as §1
+Dose killing 90% of clonogens, 1hr. drug exposure.

murine P388 leukemia = experiment: In vivo antitumor activity vs. murine P388 (P388/S) leukemia; design: species or system murine (B6D2F1 males); conditions: for Long-term survivors / Median increase in lifespan / Median survival / Net mean percent weight change, day 7 / Range of deaths (dying animals): ip
Text: Initial studies utilized a multiple dose schedule, with drug administered once daily on days 1, 2, 3 and 4. […] The marked activity of AD 312 in this system has been confirmed in multiple separate experiments.
Additional studies were done with AD 312 vs. murine P388/S under more demanding conditions of assay.
^a Summary results of 4 separate experiments. B6D2F1 males; 1 ×

[3] = test system: plasmid PC15 supercoiled DNA; experiment: DNA unwinding assay (interference with DNA topoisomerase I-mediated unwinding; drug-DNA intercalation); format: biochemical
Text: DNA unwinding assays were used to measure the ability of a test drug to interfere with DNA topoisomerase I-mediated unwinding of plasmid PC15 supercoiled DNA. DNA topoisomerase I controls the topology of double-stranded DNA and is itself not inhibited by DNA intercalating agents. Rather, intercalating agents cause distortion of the torsional angle between adjacent DNA strand components and thereby interfere with the ability of topoisomerase I to convert supercoiled DNA into relaxed forms. Accordingly, this assay is taken as the definitive test of drug-DNA intercalation.
Drugs were tested at 4 concentrations over a 125-fold concentration range. […] These compounds are 2-chloroethylurea derivatives of daunorubicin and adriamycin, respectively (i.e. not nitrosoureas, but chemical intermediates from which the nitrosoureas were derived).

DNA topoisomerase II = experiment: Drug-stimulated topoisomerase II-mediated DNA cleavage assay (end-labeled PMC41 DNA); format: biochemical; conditions: for enhancement of topoisomerase II-mediated DNA cleavage: 625-fold concentration range; for DNA topoisomerase II-inhibitory and alkylating activity: summary of biochemical studies
Text: FIGS. 5A and 5B are a photographic reproduction of the results of drug-stimulated topoisomerase II-mediated DNA cleavage assays performed on various compounds, including compounds of the present invention.
DNA intercalation is a necessary but not a sufficient requirement for DNA topoisomerase II-mediated DNA cleavage. Accordingly, determination of drug-induced enzyme inhibition requires direct assay with isolated topoisomerase II. These assays involve determination of drug-enhanced topoisomerase II-mediated cleavage of PMC41 DNA appropriately end-labeled with [α-^32 P]dATP. As better seen in FIG. 5B, lane B, purified topoisomerase II, under the assay conditions, causes fragmentation of the DNA (background cleavage), as indicated by the radioautographic appearance of bands of cleaved DNA having differing mass values.

murine L1210 lymphocytes = experiment: DNA alkaline elution filter assay, DNA damage in murine L1210 lymphocytes; format: cell-based; conditions: L1210
Text: (§2) By means of the DNA alkaline elution filter assay technique, it is possible to assess the nature of damage induced in DNA by exposure to drugs and other agents. Depending on the assay conditions, DNA lesions can be quantified as direct strand breaks, DNA-DNA interstrand crosslinks, and protein-associated strand breaks and crosslinks. The action of akylating-type drugs on DNA typically results in a predominant formation of direct DNA single-strand breaks and DNA-DNA crosslinks. DNA intercalating agents show a preponderance of protein-associated DNA damage, detectable as protein-associated single-strand breaks and DNA-protein crosslinks.
(§3) The nature of nitrosoureidoanthracycline-induced DNA damage in murine L1210 and human CLL lymphocytes was assessed by means of the alkaline elution filter technique. Murine L1210 leukemic lymphocytes, like P388/S lymphocytes, are known to contain high levels of topoisomerase II.
(§4) *All concentrations 1 μM, 1hr incubation. Each entry represents the
(§5) mean of at least two experiments, frequency per 10^6 nucleotides;
(§6) statistically significant increase above background underlined. DB, direc
(§7) (nonenzymatic) DNA breaks; PAB, proteinassociated DNA cleavage; DDCL,
(§8) interstrand DNA crosslinks; DPCL, DNAprotein crosslinks.

human CLL lymphocytes = experiment: DNA alkaline elution filter assay, DNA damage in human CLL lymphocytes; format: cell-based; conditions: for DD-CL, interstrand DNA crosslinks / DP-CL, DNA-protein crosslinks: CLL, 1 μM, 1 hr incubation
Text: as §2, §3, §4, §5, §6, §7, §8
B-cell type lymphocytes freshly obtained from patients with chronic lymphocytic leukemia (CLL) show undetectable levels of topoisomerase II.

[4] = Chemical stability / autodegradation to oxazolidinone (HPLC); format: physicochemical
Text: FIGS. 2A and 2B are reproductions of HPLC printouts showing autodegration of N-2-chloroethylnitrosoureidoadriamycin.
Again, depending upon the specific compound, similar results were seen when compounds were exposed to aqueous media or even maintained in the dry state in a vacuum desiccator. Of importance, all daunorubicin urea and nitrosourea products, regardless of the specific alkyl or aryl substituent, afforded the same anthracycline degradation product; similarly, all adriamycin ureas and nitrosoureas afforded the same other degradation material.
Epirubicin (4'-epiadriamycin) is an example of such a starting material.

[5] = Solubility in water or saline; format: physicochemical
Protocol: Accordingly, the compounds are formulated for administration by dissolving the compound in a pharmaceutically acceptable non-toxic carrier which contains a surfactant. The present inventors employ a formulation of 10% Cremaphor EL (a polyhydroxylated castor oil derivative) available from BASF Chemicals, 10% ethanol and 80% aqueous media (sterile water or saline solution). That quantity of the compound desired for establishing an effective dose is dissolved in a 1:1 mixture of Cremaphor EL and ethanol. Thereafter, sufficient aqueous medium is added with stirring to develop a final formulation containing 80% aqueous medium. This formulation is administered parenterally.

COc1cccc2c1C(=O)c1c(O)c3c(c(O)c1C2=O)C[C@@](O)(C(=O)CO)C[C@@H]3O[C@H]1C[C@H](NC(=O)N(CCCl)N=O)[C@H](O)[C@H](C)O1 [AD 347, 2-chloroethylnitrosoureidoadriamycin]
potency compared to adriamycin (more potent) [1]: 10 fold
growth inhibitory activity [1]: almost identical in vitro biological properties; also recorded: moderate to marked growth inhibitory activity
pIC50 [1]: 8.30
clonogenic cell kill [2]: essentially equipotent
IC90 [2]: 580 nM
increase in life span (murine P388 leukemia; P388/S, 16.0 mg/kg/day×4): > 500%
survival at 60 days (murine P388 leukemia; P388/S, 16.0 mg/kg/day×4): 57%
Long-term survivors (murine P388 leukemia; 2.0 mg/kg qd 1-4 (Table 7)): 0/7
Median increase in lifespan (murine P388 leukemia; 2.0 mg/kg qd 1-4 (Table 7)): +70%
Median survival (murine P388 leukemia; 2.0 mg/kg qd 1-4 (Table 7)): 17 days
Net mean percent weight change, day 7 (murine P388 leukemia; 2.0 mg/kg qd 1-4 (Table 7)): +8%
Range of deaths (dying animals) (murine P388 leukemia; 2.0 mg/kg qd 1-4 (Table 7)): 16 to 18 days
Long-term survivors (murine P388 leukemia; 4.0 mg/kg qd 1-4 (Table 7)): 0/7
Median increase in lifespan (murine P388 leukemia; 4.0 mg/kg qd 1-4 (Table 7)): +90%
Median survival (murine P388 leukemia; 4.0 mg/kg qd 1-4 (Table 7)): 19 days
Net mean percent weight change, day 7 (murine P388 leukemia; 4.0 mg/kg qd 1-4 (Table 7)): +2%
Range of deaths (dying animals) (murine P388 leukemia; 4.0 mg/kg qd 1-4 (Table 7)): 18 to 21 days
Long-term survivors (murine P388 leukemia; 8.0 mg/kg qd 1-4): 0/7
Median increase in lifespan (murine P388 leukemia; 8.0 mg/kg qd 1-4): +120%
Median survival (murine P388 leukemia; 8.0 mg/kg qd 1-4): 22 days
Net mean percent weight change, day 7 (murine P388 leukemia; 8.0 mg/kg qd 1-4): +2%
Range of deaths (dying animals) (murine P388 leukemia; 8.0 mg/kg qd 1-4): 19 to 24 days
Median increase in lifespan (murine P388 leukemia; 12.0 mg/kg qd 1-4): +160%
Median survival (murine P388 leukemia; 12.0 mg/kg qd 1-4): 26 days
Net mean percent weight change, day 7 (murine P388 leukemia; 12.0 mg/kg qd 1-4): +2%
Range of deaths (dying animals) (murine P388 leukemia; 12.0 mg/kg qd 1-4): 22 to 37 days
Long-term survivors (murine P388 leukemia; 12.0 mg/kg qd 1-4, sacrifice day 60): 2/7
Median increase in lifespan (murine P388 leukemia; 16.0 mg/kg qd 1-4): > +500%
Net mean percent weight change, day 7 (murine P388 leukemia; 16.0 mg/kg qd 1-4): -3%
Range of deaths (dying animals) (murine P388 leukemia; 16.0 mg/kg qd 1-4): 26 to 31 days
Long-term survivors (murine P388 leukemia; 16.0 mg/kg qd 1-4, sacrifice day 60): 4/7
relative strength of drug-DNA intercalation (arbitrary scale) ([3]; 0 = no intercalation, 9 = very strong intercalation): 8
interference with topoisomerase I-mediated conversion of supercoiled DNA / intercalation ([3]; 4 concentrations, 125-fold range): the ability of these compounds to intercalate, a prerequisite for topoisomerase II inhibition, is clearly established
enhancement of topoisomerase II-mediated DNA cleavage (DNA topoisomerase II): no saturation of background cleavage
DNA topoisomerase II-inhibitory and alkylating activity (DNA topoisomerase II): clearly establish the DNA topoisomerase II-inhibitory activity and alkylating activity
pattern of DNA damage (murine L1210 lymphocytes): pattern of DNA damage consistent with both topoisomerase II inhibition and DNA-alkylatingaction
pattern of DNA damage (human CLL lymphocytes; CLL B-cell lymphocytes): some level of protein-associated DNA damage in these cells, but also affords significant levels of alkylation-type damage, seen as direct strand breaks and, with increasing time, DNA interstrand crosslinks
DD-CL, interstrand DNA crosslinks (human CLL lymphocytes; 0 hr after treatment): -0.18 frequency per 10^6 nucleotides
DP-CL, DNA-protein crosslinks (human CLL lymphocytes; 0 hr after treatment): 0.16 frequency per 10^6 nucleotides
DD-CL, interstrand DNA crosslinks (human CLL lymphocytes; 1 hr after treatment): -0.04 frequency per 10^6 nucleotides
DP-CL, DNA-protein crosslinks (human CLL lymphocytes; 1 hr after treatment): 0.17 frequency per 10^6 nucleotides
DP-CL, DNA-protein crosslinks (human CLL lymphocytes; 3 hr after treatment): 0.19 frequency per 10^6 nucleotides
autodegradation ([4]; HPLC, chloroform-methanol, overnight in the cold where stated): a second signal was clearly evident

COc1cccc2c1C(=O)c1c(O)c3c(c(O)c1C2=O)C[C@@](O)(C(=O)CO)C[C@@H]3O[C@H]1C[C@H](NC(=O)N(CCCl)N=O)[C@@H](O)[C@H](C)O1 [AD 392, 2-chloroethylnitrosoureidoepirubicin]
potency compared to adriamycin (more potent) [1]: 10 fold
growth inhibitory activity [1]: almost identical in vitro biological properties; also recorded: moderate to marked growth inhibitory activity
pIC50 [1]: 8.30
clonogenic cell kill [2]: essentially equipotent
IC90 [2]: 530 nM
enhancement of topoisomerase II-mediated DNA cleavage (DNA topoisomerase II): no saturation of background cleavage
DNA topoisomerase II-inhibitory and alkylating activity (DNA topoisomerase II): clearly establish the DNA topoisomerase II-inhibitory activity and alkylating activity
pattern of DNA damage (murine L1210 lymphocytes): pattern of DNA damage consistent with both topoisomerase II inhibition and DNA-alkylatingaction
solubility ([5]; water or saline solution): essentially insoluble in water or saline solution
solubility ([5]; water, of the order of, read-out: solubility in water): < 25 µg/mL
chemical stability / tendency to decompose to oxazolidinone ([4]; relative to adriamycin-derived products): improved chemical stability
